{"source": "patent US6642003B2", "about": "“Human glucose-dependent insulin-secreting cell line” (Cedars-Sinai Medical Center, priority 2001, dated 2003)", "key": {"[1]": {"test_system": "ARIP cells", "assay": "Insulin release into culture medium (RIA), ARIP cells", "assay_type": "cell-based, rat", "experimental": "Rat (ARIP) and human (PANC-1) ductal cell lines were respectively a gift from Dr. J. M. Egan (National Institute on Aging, Baltimore, Md.) or purchased from ATCC (American Type Culture Collection; Manassas, Va.). ARIP cells were cultured in F12 medium (Gibco-BRL, Gaithersburg; Md.) containing 100 μg/ml penicillin, 50 μg/ml streptomycin and 10% fetal calf serum (FCS; Gibco-BRL) at 37° C. under a humidified condition of 95% air and 5% CO2. PANC-1 cells were cultured in DMEM medium supplemented with antibiotics and FCS, as indicated for F12 medium. Treatment with human GLP-1 (H-6795, Bachem; King of Prussia, Pa.) was carried out using cells grown to 80% of confluence, after washing the cell layer with serum-free medium and a “wash-out” incubation for 6-h with serum free medium. To determine dose response to GLP-1, cells were cultured with fresh serum-free medium containing increasing concentration of GLP-1 (0.1, 1, 10, 20 nM), or vehicle alone. At the completion of the experiment, media and cells were collected. To determine the time course of response, cells were cultured in serum-free medium with GLP-1 (10 nM) for 0, 12, 24, 48, 72 or 96 h. Control dishes were cultured with vehicle alone, or with the peptide receptor antagonist of GLP-1, Exendin-9 (100 nM) for 72 h (gift Dr. J. M. Egan). The glucose concentration in the culture medium was 12 mM for both cell lines.\nPANC-1 (parental, IDX-1-transfected, and neomycin-transfected) cells and ARIP (only parental) cells were plated at density of 10^6 cells/well in a 6 well plate. Once the cells reached 80% of confluence, they were washed with serum-free medium containing 12 mM glucose and exposed to fresh serum-free medium for increasing length of time (0, 12, 24, 48, 72, 96 h) in the presence of various concentrations of GLP-1 (0.1, 1, 10, 20 nM) or vehicle. Glucose-dependent insulin secretion was evaluated by culturing the cells in the presence of a determined concentration of GLP-1 (10 nM for 72 h) with increasing concentration of glucose in the culture medium ([…]). Insulin released into the medium was measured by RIA (Linco Research Inc.; St. Charles, Mass.). Total insulin accumulation in the culture medium was then normalized for total cellular protein content per each Individual cultures.\nTotal cellular protein content was measured by utilizing the Bradford method (Bio-Rad; Richmond, Calif.). The amount of proteins measured was used as a correction factor for determining the relative amount of medium to be assayed for each individual RIA for insulin."}, "[2]": {"test_system": "PANC-1 cells", "assay": "Immunofluorescence for IDX-1, parental PANC-1 cells", "assay_type": "cell-based, human", "conditions": "vehicle alone or GLP-1", "experimental": "(§1) Cells were cultured on monocoated chamber slides (Nalge Nunc International; Naperville, Ill.) in the presence of GLP-1 (10 nM), or vehicle, for 72 h.\nFor the detection of IDX-1, slightly different conditions were used. Briefly: the concentration of paraformaldehyde was decreased to 2%, and the concentration of Triton to permeabilize the cells was raised to 0.2% Triton-X-100. Cells were then washed with 0.01 M PBS three times for 3-5 min, and non-specific binding was inhibited by using 5% chick serum in 0.01 M PBS, at room temperature for 60 min in a humid chamber. A rabbit IDX-1 antibody directed against the N-terminus of the frog homologue of the IDX-1 gene was used as the primary antibody (1:500 diluted with 0.1% Triton-X 100, 1% BSA in 0.01 M PBS), and slides were incubated at 4° C. overnight in a humid chamber. After washing, cells were incubated with a fluorescein-conjugated goat anti-rabbit IgG antibody (Molecular Probes, Inc. Eugene, Oreg.) and incubated at room temperature for 1 hour in a humid chamber. Nuclei of cells stained with anti-IDX-1 antibody were visualized with Hoechst […] dye (Sigma, St. Louis, Mo.). The percentage of IDX-1 containing cells was evaluated by counting the number of IDX-1 “positive” cells divided by the total number of cells identified by nuclear staining."}, "[3]": {"test_system": "PANC-1/IDX-1 cells", "assay": "Immunofluorescence for IDX-1, PANC-1/IDX-1 cells", "assay_type": "cell-based, human", "experimental": "PANC-1 cells were transfected with a pcDNA3 construct (Invitrogen; Carlsbad, Calif.) harboring the wild-type full-length IDX-1 cDNA using LipoTAXI (Catalog N. 204110; Mammalian Transfection Kit, Stratagene; La Jolla, Calif.). Control cells were transfected with the vector alone. The selection of positive (i.e. transfected) cells was carried out by culturing the cells in the presence of 400 μg/ml of G418 sulfate (GN-04, Omega; Tarzana, Calif.).\nas §1\nFor the detection of IDX-1, slightly different conditions were used. Briefly: the concentration of paraformaldehyde was decreased to 2%, and the concentration of Triton to permeabilize the cells was raised to 0.2% Triton-X-100. Cells were then washed with 0.01 M PBS three times for 3-5 min, and non-specific binding was inhibited by using 5% chick serum in 0.01 M PBS, at room temperature for 60 min in a humid chamber. […] The percentage of IDX-1 containing cells was evaluated by counting the number of IDX-1 “positive” cells divided by the total number of cells identified by nuclear staining."}, "[4]": {"test_system": "glucose-intolerant aging Wistar rats", "conditions": "cited from earlier work"}, "[5]": {"conditions": "serum-free medium, 12 mM glucose, 72 h"}}}
{"substance": "glucagon-like peptide-1 [GLP-1]", "values": [{"measurement": "lowest concentration of glucose required to induce the secretion of insulin", "setting": "[1]; GLP-1 10 nM for 72 h", "value": 3, "unit": "mM"}, {"measurement": "glucose dependence of insulin release", "setting": "[1]; GLP-1 10 nM for 72 h, increasing glucose", "value": "release insulin in a glucose-dependent manner"}, {"measurement": "time of maximal insulin secretion", "setting": "[1]; GLP-1 10 nM, 12 mM glucose", "value": 48, "unit": "h"}, {"measurement": "time of plateau of insulin secretion", "setting": "[1]; GLP-1 10 nM, 12 mM glucose", "value": 72, "unit": "h"}, {"measurement": "GLP-1 concentration at plateau of insulin accumulation in the culture medium", "setting": "[1]; [5]", "value": 20, "unit": "nM"}, {"measurement": "minimum concentration of GLP-1 required to transform ARIP ductal cells into insulin producing cells", "setting": "[1]; [5]", "value": 1, "unit": "nM"}, {"measurement": "IDX-1 staining", "setting": "[2]", "value": "No positive IDX-1 staining"}, {"measurement": "effect on expression level of IDX-1", "setting": "[3]; GLP-1 10 nM for 72 h", "value": "further increase"}, {"measurement": "cells expressing IDX-1", "setting": "[3]; GLP-1 or vehicle, 400 cells counted", "value": "~100", "unit": "%"}, {"measurement": "effect on glucose tolerance", "setting": "[4]", "value": "restored normal glucose tolerance"}, {"measurement": "effect on islet cell proliferation", "setting": "[4]", "value": "induced islet cell proliferation"}]}
